Assay results from ChEMBL document CHEMBL1201862, “PubChem BioAssay data set” (2004).
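1) Cells in 96-well plates. 2) Compound, 48 h, 5 concentrations. 3) Linear interpolation between surrounding doses. 4) Unreached endpoint = highest concentration. GI50: concentration for 50% inhibition of growth.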 Active and inactive are the calls of the source. Cut-off read from the data, not from the text of the source: active = GI50 up to about 1.1 µM and inactive = higher.

Columns and labels:
Assay in all cases: NCI anticancer screen, dose series, 48 h
A549 = tested on: A549
ACHN = tested on: ACHN
CCRF-CEM = tested on: CCRF-CEM
COLO 205 = tested on: COLO 205
EKVX = tested on: EKVX
HCT-116 = tested on: HCT-116
HT-29 = tested on: HT-29
KM12 = tested on: KM12
LOX IMVI = tested on: LOX IMVI
M14 = tested on: M14
NCI-H226 = tested on: NCI-H226
NCI-H522 = tested on: NCI-H522
RPMI-8226 = tested on: RPMI-8226
SF-539 = tested on: SF-539
SK-OV-3 = tested on: SK-OV-3
SNB-19 = tested on: SNB-19
SNB-75 = tested on: SNB-75
SW-620 = tested on: SW-620
U-251 = tested on: U-251
UACC-62 = tested on: UACC-62

| Compound | GI50 (A549) | GI50 (ACHN) | GI50 (CCRF-CEM) | GI50 (COLO 205) | GI50 (EKVX) | GI50 (HCT-116) | GI50 (HT-29) | GI50 (KM12) | GI50 (LOX IMVI) | GI50 (M14) | GI50 (NCI-H226) | GI50 (NCI-H522) | GI50 (RPMI-8226) | GI50 (SF-539) | GI50 (SK-OV-3) | GI50 (SNB-19) | GI50 (SNB-75) | GI50 (SW-620) | GI50 (U-251) | GI50 (UACC-62) |
| --- | --- | --- | --- | --- | --- | --- | --- | --- | --- | --- | --- | --- | --- | --- | --- | --- | --- | --- | --- | --- |
| C=CCCCN1CCCC(C)C1=S (stereo not given) | > 100 µM (inactive) | > 100 µM (inactive) | > 100 µM (inactive) | > 100 µM (inactive) | > 100 µM (inactive) | > 100 µM (inactive) | > 100 µM (inactive) | > 100 µM (inactive) | > 100 µM (inactive) | > 100 µM (inactive) | > 100 µM (inactive) | > 100 µM (inactive) | > 100 µM (inactive) | > 100 µM (inactive) | > 100 µM (inactive) | > 100 µM (inactive) | 52 µM (inactive) | > 100 µM (inactive) | > 100 µM (inactive) | > 100 µM (inactive) |
| CN(c1ccccc1)c1cc2ccccc2nn1 | > 100 µM (inactive) | 74 µM (inactive) | 47.1 µM (inactive) | > 100 µM (inactive) | 65.8 µM (inactive) | > 100 µM (inactive) | > 100 µM (inactive) | > 100 µM (inactive) | 84.5 µM (inactive) | > 100 µM (inactive) | > 100 µM (inactive) | 27.6 µM (inactive) | 70 µM (inactive) | > 100 µM (inactive) | > 100 µM (inactive) | > 100 µM (inactive) | 64.3 µM (inactive) | > 100 µM (inactive) | 81.8 µM (inactive) | > 100 µM (inactive) |
| COc1ccc(/C=C2/C[N+](C)(C)C/C(=C/c3ccc(OC)cc3)C2=O)cc1 | > 76.4 µM (inactive) | > 100 µM (inactive) | 18.5 µM (inactive) | 16.9 µM (inactive) | > 100 µM (inactive) | 32.5 µM (inactive) | 30.2 µM (inactive) | 16 µM (inactive) | 88.1 µM (inactive) | 70.5 µM (inactive) | 20.9 µM (inactive) | 17.9 µM (inactive) | 5.7 µM (inactive) | 40 µM (inactive) | > 100 µM (inactive) | 43.3 µM (inactive) | 66.7 µM (inactive) | 42.7 µM (inactive) | 19.5 µM (inactive) | 16.3 µM (inactive) |
| COc1ccc(C(SCC(N)C(=O)O)(c2ccc(OC)cc2)c2ccc(OC)cc2)cc1 (stereo not given) | 17.1 µM (inactive) | 12 µM (inactive) | 13.7 µM (inactive) | 12.4 µM (inactive) | 13.7 µM (inactive) | 6.98 µM (inactive) | 10.6 µM (inactive) | 6.32 µM (inactive) | 9.02 µM (inactive) | 10.2 µM (inactive) | 13.2 µM (inactive) | 14.1 µM (inactive) | 15.9 µM (inactive) | 12.9 µM (inactive) | 21.2 µM (inactive) | 14.1 µM (inactive) | 11.3 µM (inactive) | > 10 µM (inactive) | 14.8 µM (inactive) | 10.7 µM (inactive) |
| O=C1C=Cc2ncccc2C1=O | 30.8 µM (inactive) | 20.8 µM (inactive) | 7.05 µM (inactive) | 18 µM (inactive) | 23.5 µM (inactive) | 16.9 µM (inactive) | 22.2 µM (inactive) | 33.7 µM (inactive) | 13.5 µM (inactive) | 18.1 µM (inactive) | > 44.9 µM (inactive) | 15.7 µM (inactive) | 24.1 µM (inactive) | 21.1 µM (inactive) | 37.9 µM (inactive) | > 78.3 µM (inactive) | 21.3 µM (inactive) | 15.4 µM (inactive) | 24.4 µM (inactive) | 16.8 µM (inactive) |
| Cc1ccc(/N=N/c2ccc(O)c(CN(C)C)c2)cc1 | 20.3 µM (inactive) | 17.3 µM (inactive) | 22.8 µM (inactive) | 17.7 µM (inactive) | 22.6 µM (inactive) | 22.5 µM (inactive) | 17.2 µM (inactive) | 15.8 µM (inactive) | 14 µM (inactive) | 21.9 µM (inactive) | 20.9 µM (inactive) | 16.7 µM (inactive) | 17.8 µM (inactive) | 17.7 µM (inactive) | 32.7 µM (inactive) | 36.6 µM (inactive) | 21.6 µM (inactive) | 20.7 µM (inactive) | 32.1 µM (inactive) | 20.3 µM (inactive) |
| CCO/N=C\c1ccc2oc(-c3ccccc3)cc(=O)c2c1 | 0.417 µM (active) | 1.51 µM (inactive) | 0.228 µM (active) | 0.0506 µM (active) | 3.03 µM (inactive) | 0.181 µM (active) | 0.0521 µM (active) | 0.0522 µM (active) | 1.07 µM (active) | 0.172 µM (active) | 0.421 µM (active) | 0.0247 µM (active) | 0.215 µM (active) | 0.168 µM (active) | 0.474 µM (active) | 0.48 µM (active) | 0.219 µM (active) | 0.129 µM (active) | 0.628 µM (active) | 0.194 µM (active) |
| Cc1nc(Nc2ccccc2Cl)sc1C(=O)CC(=O)C(=O)Nc1c(Cl)cccc1Cl | 24.9 µM (inactive) | 45 µM (inactive) | 28.4 µM (inactive) | 18.6 µM (inactive) | 17.9 µM (inactive) | 18.8 µM (inactive) | 25.4 µM (inactive) | 25.4 µM (inactive) | 27.4 µM (inactive) | 29.9 µM (inactive) | 17.5 µM (inactive) | 19.3 µM (inactive) | 28.2 µM (inactive) | 26.9 µM (inactive) | 29.1 µM (inactive) | 63.8 µM (inactive) | 24.4 µM (inactive) | 26.5 µM (inactive) | 24.9 µM (inactive) | 45.6 µM (inactive) |
| O=C(/C(=C/c1cccs1)c1ccccc1)c1ccccc1 | 54.2 µM (inactive) | 39.4 µM (inactive) | > 100 µM (inactive) | > 100 µM (inactive) | > 100 µM (inactive) | > 100 µM (inactive) | 53.2 µM (inactive) | > 100 µM (inactive) | > 100 µM (inactive) | > 100 µM (inactive) | > 100 µM (inactive) | 53.7 µM (inactive) | > 100 µM (inactive) | 17.5 µM (inactive) | > 100 µM (inactive) | 30.5 µM (inactive) | 37.7 µM (inactive) | > 100 µM (inactive) | 77.1 µM (inactive) | > 100 µM (inactive) |
| CN(C)CCCn1nc(N)c2nc3cc(Cl)ccc3nc21 | 37.1 µM (inactive) | 39.7 µM (inactive) | 31 µM (inactive) | 33 µM (inactive) | > 66.5 µM (inactive) | 30.3 µM (inactive) | 27.9 µM (inactive) | 43.9 µM (inactive) | 34.8 µM (inactive) | 20.7 µM (inactive) | 45.2 µM (inactive) | 61.9 µM (inactive) | 60.3 µM (inactive) | 38.2 µM (inactive) | > 100 µM (inactive) | 65.3 µM (inactive) | 67.8 µM (inactive) | 36.2 µM (inactive) | 44.8 µM (inactive) | 20.7 µM (inactive) |
